Consider 18 compounds from PubChem BioAssay (NCI).

Values joined by “and” are separate entries in the source; they are usually repeats but may differ in a detail not shown here. Equal entries are not always repeated.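 Five compound concentrations were applied to cells in 96-well plates for 48 hours; endpoints were derived by simple linear interpolation of the resulting dose-response curve. Abbreviation: GI50, concentration required for 50% inhibition of growth. The concentration for full growth arrest is given as TGI.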

Some test systems named below: PC-3 prostate; DU-145 prostate; BT-549 breast; T-47D breast; MDA-N; XF 498 CNS; DMS 114 small cell lung.
Holding throughout (test): inhibition of tumour cell growth, NCI panel, 48 h

For the compound `CCC1(NC(=O)c2cc(F)c(F)c(F)c2F)C(=O)NC(=O)N(C(C)C)C1=O` (configuration not stated), the GI50 in the assay on PC-3 prostate was 21.6 µM; with DU-145 prostate it was 33.7 µM; in the assay on BT-549 breast, 20 µM; in the assay on T-47D breast, above 100 µM. The TGI with PC-3 prostate was 63.6 µM; in the assay with DU-145 prostate it was above 100 µM; with BT-549 breast, 44.1 µM; in the assay with T-47D breast it was above 100 µM.
On to `CN(CC(=O)O)Cc1oc(CO)cc(=O)c1O`, for which the TGI in the assay on PC-3 prostate, in the assay with BT-549 breast, in the assay on MDA-N and with T-47D breast was above 100 µM in each case.
Regarding `Cc1cnccc1N=Nc1ccc(N(C)C)cc1`, the TGI in the assay with PC-3 prostate is 97.3 µM; in the assay on DU-145 prostate, above 100 µM; with BT-549 breast, 49.3 µM; with MDA-N, 69.3 µM; in the assay with T-47D breast it was above 100 µM.
With `FC(F)(F)c1cccc2c(SCCc3n[nH]c(=S)o3)ccnc12`, the GI50 with PC-3 prostate was 34.1 µM; in the assay with DU-145 prostate, 78.4 µM; in the assay on BT-549 breast, 30 µM; with T-47D breast it was 29.3 µM. Also, the TGI is above 100 µM with PC-3 prostate, above 100 µM with DU-145 prostate, above 100 µM in the assay with BT-549 breast and 93.3 µM in the assay on T-47D breast.
As for `N#C/C(=C\c1c(-c2ccccc2)[nH]c2ccccc12)C(=O)c1ccccc1`, the GI50 in the assay with PC-3 prostate is 3.46 µM; with DU-145 prostate, 5.22 µM; in the assay with BT-549 breast, 3 µM; in the assay with T-47D breast, 5.27 µM. Further, the TGI in the assay with PC-3 prostate, in the assay on DU-145 prostate, with BT-549 breast and in the assay with T-47D breast was above 100 µM throughout.
Regarding `C[C@@H](COCCC(=O)N1CCN(c2ncc(C(F)(F)F)cn2)CC1)Nc1cn[nH]c(=O)c1C(F)(F)F`, the GI50 with PC-3 prostate is 45.4 µM; with DU-145 prostate it was 37.6 µM; in the assay with BT-549 breast it was 0.078 µM; in the assay with T-47D breast, 33.1 µM. Further, the TGI with PC-3 prostate, in the assay on DU-145 prostate, in the assay with BT-549 breast and in the assay with T-47D breast was above 100 µM in each case.
Turning to `NC(=O)c1ccccc1NC(=O)c1ccccc1Cl`, the GI50 in the assay on PC-3 prostate, with DU-145 prostate, in the assay on BT-549 breast and in the assay with T-47D breast was above 100 µM in each case. Besides, the TGI in the assay with PC-3 prostate, in the assay with DU-145 prostate, in the assay on BT-549 breast and in the assay with T-47D breast was above 100 µM each time.
In the case of `CC(=O)OC1CCC2C(=CCC3C2(C)C(=O)CC2(C)C(C4(C)OC(C(C)C)=CC4=O)C(O)CC32C)C1(C)C` (configuration not stated), the TGI in the assay on XF 498 CNS is above 100 µM; with DMS 114 small cell lung, 57.8 µM.
For the compound `COc1cc(F)c(/C=C/c2cc(/C=C/c3cc(OC)c(OC)cc3F)n(-c3cc(F)cc(F)c3)n2)cc1OC`, the GI50 in the assay with PC-3 prostate is 2.66 µM; in the assay with DU-145 prostate, 3.68 µM; in the assay on BT-549 breast, 2.35 µM; in the assay on T-47D breast, 3.46 µM. The TGI came out at 8.17 µM with PC-3 prostate, 18.1 µM in the assay on DU-145 prostate, 7.51 µM with BT-549 breast and 20.7 µM in the assay on T-47D breast.
For `Cn1cnc2c(F)c(Nc3ccc(Br)cc3F)c(C(=O)NOCCO)cc21`, the GI50 is above 100 µM with PC-3 prostate, 51.1 µM in the assay with DU-145 prostate, above 60.2 µM in the assay with BT-549 breast and above 100 µM in the assay with T-47D breast. Moreover, the TGI in the assay on PC-3 prostate, in the assay on DU-145 prostate, in the assay on BT-549 breast and with T-47D breast was above 100 µM in each case.
Turning to `NCCCN1CCN(CCCNc2nc3ccccc3c3[nH]c4ccccc4c23)CC1`, the GI50 is 0.437 µM in the assay with PC-3 prostate, 0.299 µM in the assay on DU-145 prostate, 2.12 µM in the assay on BT-549 breast and 0.561 µM in the assay on T-47D breast. Moreover, the TGI in the assay with PC-3 prostate turned out to be 2.98 µM; in the assay on DU-145 prostate it was 7.83 µM; in the assay with BT-549 breast it was 5.72 µM; in the assay on T-47D breast it was 6.85 µM.
For the compound `CC(=O)OC(C)c1cc2c(s1)C(=O)c1c(C(C)OC(C)=O)csc1C2=O` (configuration not stated), the TGI with PC-3 prostate stood at 6.6 µM; in the assay on DU-145 prostate, 1.86 µM; in the assay with BT-549 breast it was 3.83 µM; in the assay with MDA-N, 0.382 µM; in the assay on T-47D breast it was 5.52 µM. Moreover, the GI50 in the assay on BT-549 breast is 2.14 µM; with MDA-N it was 0.214 µM.
`Cc1ccc(C=NC23CC4CC(CC(C4)C2)C3)cc1`: the TGI in the assay with XF 498 CNS and with DMS 114 small cell lung was above 100 µM throughout.
With `Cc1nc2c(N3CCCC3)nc(N3CCNCC3)nc2nc1NCc1ccccc1`, the TGI with PC-3 prostate was 11 µM and 17 µM; in the assay on DU-145 prostate, 19.4 µM and 21.3 µM; with BT-549 breast it was 10.7 µM and 14.8 µM; in the assay on MDA-N it was 9.44 µM and 3.28 µM; in the assay on T-47D breast it was 13.8 µM and 4.96 µM. Moreover, the GI50 in the assay with DU-145 prostate is 5.35 µM; with BT-549 breast, 5.05 µM; with MDA-N it was 4.38 µM; with T-47D breast, 3.23 µM.
On to `Clc1cc(-c2ccccc2)nc2ccccc12`, for which the TGI with PC-3 prostate is 84.2 µM; with DU-145 prostate, above 100 µM; in the assay on BT-549 breast, 80.4 µM; in the assay with MDA-N it was above 100 µM; in the assay with T-47D breast, above 100 µM.
As to `C=C(CNC(=O)c1ccccc1)c1ccc(C(=O)Nc2ccccc2N)cc1`, the GI50 is 2.95 µM with PC-3 prostate, 4.08 µM in the assay on DU-145 prostate, 19.6 µM with BT-549 breast and 4.99 µM in the assay with T-47D breast. For the same compound, the TGI in the assay on PC-3 prostate, with DU-145 prostate, in the assay on BT-549 breast and with T-47D breast was above 100 µM in each case.
Take `COc1ccc(-c2cc(-c3cccc(NS(C)(=O)=O)c3)nc(N)c2C#N)cc1`: the GI50 in the assay on PC-3 prostate was 0.0971 µM; in the assay on DU-145 prostate, 0.164 µM; in the assay with BT-549 breast it was 0.127 µM; in the assay on T-47D breast, 0.362 µM. The TGI with PC-3 prostate was 14.2 µM; in the assay with DU-145 prostate, 8.82 µM; in the assay on BT-549 breast it was 12.3 µM; in the assay with T-47D breast, 13.7 µM.
As for `CCOc1nccc2c1nc(-c1nonc1N)n2CC`, the GI50 with PC-3 prostate, in the assay with DU-145 prostate, in the assay on BT-549 breast and in the assay with T-47D breast was above 25 µM throughout. Besides, the TGI in the assay with PC-3 prostate, with DU-145 prostate, in the assay with BT-549 breast and in the assay with T-47D breast was above 25 µM each time.
